Molecular target: T1, human mAChR M4 (Homo sapiens, UniProt P08173)
T1 construct: expressed in transfected cells; host or cells: CHO-K1 (American Type Culture Collection), stably expressing hM4 and Gqi5
T1 sequence (P08173 1-479): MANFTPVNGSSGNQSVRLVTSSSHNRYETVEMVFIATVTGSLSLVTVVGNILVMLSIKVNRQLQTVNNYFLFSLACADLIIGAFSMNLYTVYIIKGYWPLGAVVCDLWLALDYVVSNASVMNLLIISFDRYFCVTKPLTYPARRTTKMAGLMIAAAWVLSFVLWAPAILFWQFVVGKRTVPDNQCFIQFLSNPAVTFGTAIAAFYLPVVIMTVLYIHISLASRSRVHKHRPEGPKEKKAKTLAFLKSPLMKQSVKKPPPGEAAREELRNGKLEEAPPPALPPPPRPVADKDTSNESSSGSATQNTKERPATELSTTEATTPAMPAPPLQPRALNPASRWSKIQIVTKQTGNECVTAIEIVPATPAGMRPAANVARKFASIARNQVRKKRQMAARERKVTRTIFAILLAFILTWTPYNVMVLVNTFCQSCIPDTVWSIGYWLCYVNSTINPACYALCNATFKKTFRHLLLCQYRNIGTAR
Assay: mAChR M4 cell-based functional assay: calcium mobilization (Fluo-4, FDSS), potentiation of EC20 acetylcholine response in hM4-Gqi5 CHO-K1 cells
Conditions: human M4; for Emax at 30 µM: CHO-K1, % ACh maximum at 30 μM; for EC50: potentiation of EC20 acetylcholine response, calcium mobilization
Method in brief: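 Readout is the fluorescence-ratio rise at 1 Hz on FDSS, with PAM activity taken as concentration-dependent enhancement of the EC20 acetylcholine response, fitted four-parameter for EC50/Emax. hM4-Gqi5 CHO-K1 cells carried Fluo-4 AM dye; test compounds (11 points, 1:3) preceded EC20 acetylcholine additions at 144 s and 230 s.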

SMILES	Emax at 30 µM [%]	EC50 [nM]
COc1cc(C)c(-c2cnc3c(c2)CN(c2nn4c(=O)ccnc4cc2C)CC3)cn1 [Compound 1-387, 7-(3-(6-methoxy-4-methylpyridin-3-yl)-7,8-dihydro-1,6-naphthyridin-6(5H)-yl)-8-methyl-4H-pyrimido[1,2-b] pyridazin-4-one]	92	46
Cc1c(N2CCc3ncc(C(F)(F)F)cc3C2)nn2c(=O)cc(C(F)F)nc2c1C [Compound 1-40, 2-(difluoromethyl)-8,9-dimethyl-7-(3-(trifluoromethyl)-7,8-dihydro-1,6-naphthyridin-6(5H)-yl)-4H-pyrimido[1,2-b]pyridazin-4-one]	93	38
Cc1ccc(-c2cnc3c(c2)CN(c2nn4c(=O)cc(C(F)(F)F)nc4c(C)c2C)CC3)cn1 [Compound 1-84, 8,9-dimethyl-7-(3-(6-methylpyridin-3-yl)-7,8-dihydro-1,6-naphthyridin-6(5H)-yl)-2-(trifluoromethyl)-4H-pyrimido[1,2-b]pyridazin-4-one]	101	149
Cc1cc(=O)n2nc(N3CCc4ncc(-c5cccs5)cc4C3)c(C)cc2n1 [Compound 1-297, 2,8-dimethyl-7-(3-(thiophen-2-yl)-7,8-dihydro-1,6-naphthyridin-6(5H)-yl)-4H-pyrimido[1,2-b]pyridazin-4-one]	87	76
COc1cncc(-c2cnc3c(c2)CN(c2nn4c(=O)ccnc4cc2C)CC3)c1 [Compound 1-52, 7-(3-(5-methoxypyridin-3-yl)-7,8-dihydro-1,6-naphthyridin-6(5H)-yl)-8-methyl-4H-pyrimido[1,2-b]pyridazin-4-one]	47	232
COc1ccccc1-c1cnc2c(c1)CN(c1nn3c(=O)cc(C)nc3cc1C)CC2 [Compound 1-233, 7-(3-(2-methoxyphenyl)-7,8-dihydro-1,6-naphthyridin-6(5H)-yl)-2,8-dimethyl-4H-pyrimido[1,2-b]pyridazin-4-one]	65	735
Cc1cc(=O)n2nc(N3CCc4ncc(-c5ccc(C)c(F)c5)cc4C3)c(C)cc2n1 [Compound 1-206, 7-(3-(3-fluoro-4-methylphenyl)-7,8-dihydro-1,6-naphthyridin-6(5H)-yl)-2,8-dimethyl-4H-pyrimido[1,2-b]pyridazin-4-one]	71	409
Cc1cc(=O)n2nc(N3CCc4ncc(-c5cnccn5)cc4C3)c(C)cc2n1 [Compound 1-260, 2,8-dimethyl-7-(3-(pyrazin-2-yl)-7,8-dihydro-1,6-naphthyridin-6(5H)-yl)-4H-pyrimido[1,2-b]pyridazin-4-one]	83	97
Cc1ncccc1-c1cnc2c(c1)CN(c1nn3c(=O)ccnc3c(C)c1C)CC2 [Compound 1-101, 8,9-dimethyl-7-(3-(2-methylpyridin-3-yl)-7,8-dihydro-1,6-naphthyridin-6(5H)-yl)-4H-pyrimido[1,2-b]pyridazin-4-one]	93	332
Cc1cc2ncc(N3CCOCC3)c(=O)n2nc1N1CCc2ncc(C(F)(F)F)cc2C1 [Compound 1-19, 8-Methyl-3-morpholino-7-(3-(trifluoromethyl)-7,8-dihydro-1,6-naphthyridin-6(5H)-yl)-4H-pyrimido[1,2-b]pyridazin-4-one]	70	113
COCc1cc(=O)n2nc(N3CCc4ncc(-c5ccccc5C)cc4C3)c(C)cc2n1 [Compound 1-337, 2-(methoxymethyl)-8-methyl-7-(3-(o-tolyl)-7,8-dihydro-1,6-naphthyridin-6(5H)-yl)-4H-pyrimido[1,2-b]pyridazin-4-one]	76	331
Cc1c(N2CCc3ncc(-c4cncnc4)cc3C2)nn2c(=O)cc(C(F)F)nc2c1C [Compound 1-159, 2-(difluoromethyl)-8,9-dimethyl-7-(3-(pyrimidin-5-yl)-7,8-dihydro-1,6-naphthyridin-6(5H)-yl)-4H-pyrimido[1,2-b]pyridazin-4-one]	86	3060
Cc1cc2ncc(-c3ccccc3)c(=O)n2nc1N1CCc2ncc(C(F)(F)F)cc2C1 [Compound 1-21, 8-methyl-3-phenyl-7-(3-(trifluoromethyl)-7,8-dihydro-1,6-naphthyridin-6(5H)-yl)-4H-pyrimido[1,2-b]pyridazin-4-one]	75	136
Cc1cc2nccc(=O)n2nc1N1CCc2ncc(-c3ccccn3)cc2C1 [Compound 1-349, 8-methyl-7-(3-(pyridin-2-yl)-7,8-dihydro-1,6-naphthyridin-6(5H)-yl)-4H-pyrimido[1,2-b] pyridazin-4-one]	69	1140
Cc1ccccc1-c1cnc2c(c1)CN(c1nn3c(=O)ccnc3c(C)c1C)CC2 [Compound 1-222, 8,9-dimethyl-7-(3-(o-tolyl)-7,8-dihydro-1,6-naphthyridin-6(5H)-yl)-4H-pyrimido[1,2-b] pyridazin-4-one]	83	74
Cc1cnccc1-c1cnc2c(c1)CN(c1nn3c(=O)cc(C(F)F)nc3c(C)c1C)CC2 [Compound 1-307, 2-(difluoromethyl)-8,9-dimethyl-7-(3-(3-methylpyridin-4-yl)-7,8-dihydro-1,6-naphthyridin-6(5H)-yl)-4H-pyrimido[1,2-b]pyridazin-4-one]	88	69
Cc1ccc(-c2cnc3c(c2)CN(c2nn4c(=O)cc(C(F)(F)F)nc4cc2C)CC3)cn1 [Compound 1-80, 8-methyl-7-(3-(6-methylpyridin-3-yl)-7,8-dihydro-1,6-naphthyridin-6(5H)-yl)-2-(trifluoromethyl)-4H-pyrimido[1,2-b]pyridazin-4-one]	104	64

Results, then the compound that gave them:

Emax at 30 µM [%]	EC50 [nM]	SMILES
84	585	Cc1cnccc1Nc1cnc2c(c1)CN(c1nn3c(=O)ccnc3cc1C)CC2 [Compound 2-102, 8-methyl-7-(3-((3-methylpyridin-4-yl)amino)-7,8-dihydro-1,6-naphthyridin-6(5H)-yl)-4H-pyrimido[1,2-b]pyridazin-4-one]
98	324	COc1cncc(Nc2cnc3c(c2)CN(c2nn4c(=O)ccnc4cc2C)CC3)c1 [Compound 2-137, 7-(3-((5-methoxypyridin-3-yl)amino)-7,8-dihydro-1,6-naphthyridin-6(5H)-yl)-8-methyl-4H-pyrimido[1,2-b]pyridazin-4-one]
82	469	Cc1cc2nccc(=O)n2nc1N1CCc2ncc(Nc3ccc(F)nc3C)cc2C1 [Compound 2-143, 7-(3-((6-fluoro-2-methylpyridin-3-yl)amino)-7,8-dihydro-1,6-naphthyridin-6(5H)-yl)-8-methyl-4H-pyrimido[1,2-b]pyridazin-4-one]
103	102	Cc1cc2nccc(=O)n2nc1N1CCc2ncc(Nc3cccnc3F)cc2C1 [Compound 2-78, 7-(3-((2-fluoropyridin-3-yl)amino)-7,8-dihydro-1,6-naphthyridin-6(5H)-yl)-8-methyl-4H-pyrimido[1,2-b]pyridazin-4-one]
71	173	Cc1cc(N2CCc3ncc(N4CCCn5nccc54)cc3C2)nn2c(=O)ccnc12 [Compound 2-3, 7-(3-(6,7-dihydropyrazolo[1,5-a]pyrimidin-4(5H)-yl)-7,8-dihydro-1,6-naphthyridin-6(5H)-yl)-9-methyl-4H-pyrimido[1,2-b]pyridazin-4-one]
93	329	Cc1ccc(Nc2cnc3c(c2)CN(c2nn4c(=O)ccnc4cc2C)CC3)c(F)n1 [Compound 2-115, 7-(3-((2-fluoro-6-methylpyridin-3-yl)amino)-7,8-dihydro-1,6-naphthyridin-6(5H)-yl)-8-methyl-4H-pyrimido[1,2-b]pyridazin-4-one]
94	84	Cc1c(N2CCc3ncc(N4CCO[C@H](C)C4)cc3C2)nn2c(=O)ccnc2c1C [Compound 2-32, (R)-8,9-dimethyl-7-(3-(2-methylmorpholino)-7,8-dihydro-1,6-naphthyridin-6(5H)-yl)-4H-pyrimido[1,2-b]pyridazin-4-one]
89	33	Cc1cc2nccc(=O)n2nc1N1CCc2ncc(N3CCCc4cc(F)ccc43)cc2C1 [Compound 2-103, 7-(3-(6-fluoro-3,4-dihydroquinolin-1(2H)-yl)-7,8-dihydro-1,6-naphthyridin-6(5H)-yl)-8-methyl-4H-pyrimido[1,2-b]pyridazin-4-one]
92	16	Cc1cc2nccc(=O)n2nc1N1CCc2ncc(Nc3ccnc(F)c3)cc2C1 [Compound 2-123, 7-(3-((2-fluoropyridin-4-yl)amino)-7,8-dihydro-1,6-naphthyridin-6(5H)-yl)-8-methyl-4H-pyrimido[1,2-b]pyridazin-4-one]
79	60	Cc1cc(=O)n2nc(N3CCc4ncc(Nc5cccnc5F)cc4C3)c(C)cc2n1 [Compound 2-19, 7-(3-((2-fluoropyridin-3-yl)amino)-7,8-dihydro-1,6-naphthyridin-6(5H)-yl)-2,8-dimethyl-4H-pyrimido[1,2-b]pyridazin-4-one]

— patent US20250101041A1, “POSITIVE ALLOSTERIC MODULATORS OF THE MUSCARINIC ACETYLCHOLINE RECEPTOR M4” (Vanderbilt University, priority 2022, published 2025)
